Laboratory results from patent publication US20090298903A1, “USE OF TETRAMIC ACID DERIVATIVES FOR INSECT CONTROL” (priority 2006, published 2009).

Key:
Format in all cases: in vivo
[1] = tested on: Frankliniella occidentalis; test: Example 2: bell peppers against Frankliniella occidentalis; settings: Acrinathrin 60, (I-9) 54, (I-4) 60 g a.s./ha, (I-9)/(I-4) 240 SC + 0.1% rapeseed oil methyl ester
Procedure: Plots 10 m^2 in size which are planted with bell peppers cv. “Zingaro” are treated, in three replications, against Frankliniella occidentalis. The application is effected with a knapsack sprayer which is operated with pressurized air. Here, the active substances Example (I-9) (240 SC) and Example (I-4) (240 SC), in the form of a tank mix together with 0.1% a.s. rapeseed oil methyl ester (500 EW) and the commercial standard acrinathrin (075 EW), are applied at the specified application rates. Two applications are carried out at an interval of 24 days, with a water application rate of 1000 l/ha.
The test is evaluated 17 and 21 days after treatment 1 and 4 days after treatment 2 by scoring the destruction of the animals (nymphs) on the flowers.

[2] = tested on: Liriomyza sp.; test: Example 18: beans against Liriomyza sp.
Procedure: Plots approx. 10 m^2 in size which are planted with beans cv. “Lago Azul” are treated, in three replications, against Liriomyza sp. Here, the active substance Example (I-4) (150 OD) and the commercial standards Cyromazine (WP 75) and Abamectin (EC 018) are applied at the specified application rates, using a knapsack sprayer which is operated with pressurized gas. The water application rate is 400 and 500 l/ha., respectively. Three applications are carried out at intervals of in each case 7 days.
The destruction rate in percent is determined on in each case 10 leaves. 2, 7, 12, 18, 20 and 25 days after the first treatment, the following results are obtained: […]

[3] = tested on: sawflies Hoplocampa sp.; test: Example 31: apple trees against sawflies; settings: 57 d after treatment, larvae on fruits, Thiacloprid (SC 480) 48 + deltamethrin 3.75 tank mix, (I-4) (150 OD) 48 g a.s./ha/m crown level
Procedure: Apple trees cv. “Holsteiner Cox” in plots approx. 20 m^2 in size are treated, in 4 replications, against sawflies Hoplocampa sp. Here, the active substance Example (I-4) (150 OD) at the specified application rate is tested against a tank mix of the commercial standards Thiacloprid (SC 480) and Deltamethrin-liquid in the specified application rates. The application is carried out with a knapsack sprayer. Here, the treatment is effected with a water application rate of 500 l/ha/m crown level.
The test is evaluated 57 days after the treatment by scoring the destruction of the larvae on the fruits with the aid of the Abbott method.

## CCOC(=O)OC1=C(c2cc(C)ccc2C)C(=O)N[C@]12CC[C@@H](OC)CC2 [Example (I-4)]
[1]; 4 d after treatment 2, nymphs on flowers
  Efficacy (% Abbott) 4 d (2): 80 % Abbott
[1]; 17 d after treatment 1, nymphs on flowers
  Efficacy (% Abbott) 17 d (1): 71 % Abbott
[1]; 21 d after treatment 1, nymphs on flowers
  Efficacy (% Abbott) 21 d (1): 85 % Abbott
[2]; 2 d after first treatment, 10 leaves, Cyromazine (WP 75) 130, (I-4) (150 OD) 100, Abamectin (EC 018) 14.4 g a.s./ha, three applications, 7-day intervals
  Efficacy (% Abbott) 2 d: 40 % Abbott
[2]; 7 d after first treatment, Cyromazine 130, (I-4) 100, Abamectin 14.4 g a.s./ha
  Efficacy (% Abbott) 7 d: 69 % Abbott
[2]; 12 d after first treatment, Cyromazine 130, (I-4) 100, Abamectin 14.4 g a.s./ha
  Efficacy (% Abbott) 12 d: 30 % Abbott
[2]; 18 d after first treatment, Cyromazine 130, (I-4) 100, Abamectin 14.4 g a.s./ha
  Efficacy (% Abbott) 18 d: 43 % Abbott
[2]; 20 d after first treatment, Cyromazine 130, (I-4) 100, Abamectin 14.4 g a.s./ha
  Efficacy (% Abbott) 20 d: 57 % Abbott
[2]; 25 d after first treatment, Cyromazine 130, (I-4) 100, Abamectin 14.4 g a.s./ha
  Efficacy (% Abbott) 25 d: 46 % Abbott
[3]
  Efficacy (%) Abbott 57 d: 98%
